How the values were obtained:
[1] = test system: Pons; assay: Drug uptake in anesthetized cynomolgus monkey brain pons after 15.5 mins postinjection; type: ADME, organism-based, Macaca fascicularis; conditions: in vivo
[2] = test system: Pons; assay: Drug uptake in anesthetized cynomolgus monkey brain pons after 145 mins postinjection; type: ADME, organism-based, Macaca fascicularis; conditions: in vivo
[3] = Ratio of drug uptake in putamen to cerebellum in anesthetized cynomolgus monkey after 215 mins postinjection; type: ADME, organism-based, Macaca fascicularis; conditions: in vivo
[4] = Ratio of drug uptake in putamen to cerebellum in anesthetized cynomolgus monkey after 35 mins postinjection; type: ADME, organism-based, Macaca fascicularis; conditions: in vivo
[5] = test system: Thalamus; assay: Drug uptake in anesthetized cynomolgus monkey brain thalamus after 1.5 mins postinjection; type: ADME, organism-based, Macaca fascicularis; conditions: in vivo, 0.025 h
[6] = test system: Thalamus; assay: Drug uptake in anesthetized cynomolgus monkey brain thalamus after 75 mins postinjection; type: ADME, organism-based, Macaca fascicularis; set-up: unit not given here; conditions: in vivo, 1.25 h
[7] = test system: Midbrain; assay: Drug uptake in anesthetized cynomolgus monkey brain midbrain after 9.5 mins postinjection; type: ADME, organism-based, Macaca fascicularis; set-up: unit not given here; conditions: in vivo
[8] = test system: Putamen; assay: Drug uptake in anesthetized cynomolgus monkey brain putamen after 12.5 mins postinjection; type: ADME, organism-based, Macaca fascicularis; set-up: unit not given here; conditions: in vivo
[9] = test system: Thalamus; assay: Drug uptake in anesthetized cynomolgus monkey brain thalamus after 22.5 mins postinjection; type: ADME, organism-based, Macaca fascicularis; set-up: unit not given here; conditions: in vivo, 0.375 h
[10] = test system: Pons; assay: Drug uptake in anesthetized cynomolgus monkey brain pons after 65 mins postinjection; type: ADME, organism-based, Macaca fascicularis; conditions: in vivo
[11] = Drug uptake in anesthetized cynomolgus monkey brain occipital lobe after 155 mins postinjection; type: ADME, organism-based, Macaca fascicularis; conditions: in vivo
[12] = Ratio of drug uptake in midbrain to cerebellum in anesthetized cynomolgus monkey after 2.5 mins postinjection; type: ADME, organism-based, Macaca fascicularis; conditions: in vivo
[13] = Drug uptake in anesthetized cynomolgus monkey brain occipital lobe after 35 mins postinjection; type: ADME, organism-based, Macaca fascicularis; conditions: in vivo
[14] = test system: Thalamus; assay: Drug uptake in anesthetized cynomolgus monkey brain thalamus after 175 mins postinjection; type: ADME, organism-based, Macaca fascicularis; set-up: unit not given here; conditions: in vivo
[15] = Drug uptake in anesthetized cynomolgus monkey brain frontal lobe after 35 mins postinjection; type: ADME, organism-based, Macaca fascicularis; conditions: in vivo
[16] = test system: Putamen; assay: Drug uptake in anesthetized cynomolgus monkey brain putamen after 35 mins postinjection; type: ADME, organism-based, Macaca fascicularis; set-up: unit not given here; conditions: in vivo
[17] = test system: Pons; assay: Drug uptake in anesthetized cynomolgus monkey brain pons after 27.5 mins postinjection; type: ADME, organism-based, Macaca fascicularis; conditions: in vivo
[18] = Drug uptake in anesthetized cynomolgus monkey brain occipital lobe after 0.5 mins postinjection; type: ADME, organism-based, Macaca fascicularis; conditions: in vivo
[19] = Ratio of drug uptake in pons to cerebellum in anesthetized cynomolgus monkey after 18.5 mins postinjection; type: ADME, organism-based, Macaca fascicularis; conditions: in vivo
[20] = test system: Pons; assay: Drug uptake in anesthetized cynomolgus monkey brain pons after 2.5 mins postinjection; type: ADME, organism-based, Macaca fascicularis; conditions: in vivo
[21] = Drug uptake in anesthetized cynomolgus monkey brain occipital lobe after 215 mins postinjection; type: ADME, organism-based, Macaca fascicularis; conditions: in vivo
[22] = Ratio of drug uptake in putamen to cerebellum in anesthetized cynomolgus monkey after 75 mins postinjection; type: ADME, organism-based, Macaca fascicularis; conditions: in vivo, 1.25 h
[23] = test system: Pons; assay: Drug uptake in anesthetized cynomolgus monkey brain pons after 165 mins postinjection; type: ADME, organism-based, Macaca fascicularis; conditions: in vivo, 2.75 h
[24] = Ratio of drug uptake in putamen to cerebellum in anesthetized cynomolgus monkey after 155 mins postinjection; type: ADME, organism-based, Macaca fascicularis; conditions: in vivo
[25] = test system: Putamen; assay: Drug uptake in anesthetized cynomolgus monkey brain putamen after 55 mins postinjection; type: ADME, organism-based, Macaca fascicularis; set-up: unit not given here; conditions: in vivo
[26] = test system: Medulla; assay: Drug uptake in anesthetized cynomolgus monkey brain medulla after 225 mins postinjection; type: ADME, organism-based, Macaca fascicularis; conditions: in vivo, 3.75 h
[27] = test system: Medulla; assay: Drug uptake in anesthetized cynomolgus monkey brain medulla after 155 mins postinjection; type: ADME, organism-based, Macaca fascicularis; conditions: in vivo
[28] = test system: Pons; assay: Drug uptake in anesthetized cynomolgus monkey brain pons after 215 mins postinjection; type: ADME, organism-based, Macaca fascicularis; conditions: in vivo
[29] = test system: Caudate; assay: Drug uptake in anesthetized cynomolgus monkey brain caudate after 0.5 mins postinjection; type: ADME, organism-based, Macaca fascicularis, Caudate nucleus; conditions: in vivo
[30] = test system: Thalamus; assay: Drug uptake in anesthetized cynomolgus monkey brain thalamus after 4.5 mins postinjection; type: ADME, organism-based, Macaca fascicularis; set-up: unit not given here; conditions: in vivo, 0.075 h
[31] = test system: Putamen; assay: Drug uptake in anesthetized cynomolgus monkey brain putamen after 115 mins postinjection; type: ADME, organism-based, Macaca fascicularis; set-up: unit not given here; conditions: in vivo
[32] = test system: Midbrain; assay: Drug uptake in anesthetized cynomolgus monkey brain midbrain after 65 mins postinjection; type: ADME, organism-based, Macaca fascicularis; set-up: unit not given here; conditions: in vivo
[33] = test system: Putamen; assay: Drug uptake in anesthetized cynomolgus monkey brain putamen after 6.5 mins postinjection; type: ADME, organism-based, Macaca fascicularis; set-up: unit not given here; conditions: in vivo
[34] = test system: Putamen; assay: Drug uptake in anesthetized cynomolgus monkey brain putamen after 9.5 mins postinjection; type: ADME, organism-based, Macaca fascicularis; set-up: unit not given here; conditions: in vivo
[35] = Ratio of drug uptake in midbrain to cerebellum in anesthetized cynomolgus monkey after 145 mins postinjection; type: ADME, organism-based, Macaca fascicularis; conditions: in vivo
[36] = Ratio of drug uptake in thalamus to cerebellum in anesthetized cynomolgus monkey after 135 mins postinjection; type: ADME, organism-based, Macaca fascicularis; conditions: in vivo, 2.25 h
[37] = test system: Midbrain; assay: Drug uptake in anesthetized cynomolgus monkey brain midbrain after 18.5 mins postinjection; type: ADME, organism-based, Macaca fascicularis; set-up: unit not given here; conditions: in vivo
[38] = test system: Thalamus; assay: Drug uptake in anesthetized cynomolgus monkey brain thalamus after 55 mins postinjection; type: ADME, organism-based, Macaca fascicularis; set-up: unit not given here; conditions: in vivo
[39] = Drug uptake in anesthetized cynomolgus monkey brain cerebellum after 0.5 mins postinjection; type: ADME, organism-based, Macaca fascicularis; conditions: in vivo
[40] = test system: Caudate; assay: Drug uptake in anesthetized cynomolgus monkey brain caudate after 3.5 mins postinjection; type: ADME, organism-based, Macaca fascicularis, Caudate nucleus; conditions: in vivo
[41] = test system: Pons; assay: Drug uptake in anesthetized cynomolgus monkey brain pons after 75 mins postinjection; type: ADME, organism-based, Macaca fascicularis; conditions: in vivo, 1.25 h
[42] = test system: Midbrain; assay: Drug uptake in anesthetized cynomolgus monkey brain midbrain after 1.5 mins postinjection; type: ADME, organism-based, Macaca fascicularis; set-up: unit not given here; conditions: in vivo, 0.025 h
[43] = Ratio of drug uptake in medulla to cerebellum in anesthetized cynomolgus monkey after 12.5 mins postinjection; type: ADME, organism-based, Macaca fascicularis; conditions: in vivo
[44] = test system: Caudate; assay: Drug uptake in anesthetized cynomolgus monkey brain caudate after 105 mins postinjection; type: ADME, organism-based, Macaca fascicularis, Caudate nucleus; conditions: in vivo, 1.75 h
[45] = Ratio of drug uptake in caudate to cerebellum in anesthetized cynomolgus monkey after 9.5 mins postinjection; type: ADME, organism-based, Macaca fascicularis; conditions: in vivo
[46] = test system: Caudate; assay: Drug uptake in anesthetized cynomolgus monkey brain caudate after 85 mins postinjection; type: ADME, organism-based, Macaca fascicularis, Caudate nucleus; conditions: in vivo
[47] = test system: Caudate; assay: Drug uptake in anesthetized cynomolgus monkey brain caudate after 175 mins postinjection; type: ADME, organism-based, Macaca fascicularis, Caudate nucleus; conditions: in vivo
[48] = Ratio of drug uptake in pons to cerebellum in anesthetized cynomolgus monkey after 0.5 mins postinjection; type: ADME, organism-based, Macaca fascicularis; conditions: in vivo
[49] = Drug uptake in anesthetized cynomolgus monkey brain frontal lobe after 215 mins postinjection; type: ADME, organism-based, Macaca fascicularis; conditions: in vivo

SMILES: O=C(OCC[18F])C1C2CCC(CC1c1cccc(/C=C\I)c1)N2 (centres undefined)
- Drug uptake [1]: 2.82
- Drug uptake [2]: 2.57
- Ratio [3]: 1.8
- Ratio [4]: 1.1
- Drug uptake [5]: 0.09
- Drug uptake [6]: 4.16
- Drug uptake [7]: 3.52
- Drug uptake [8]: 3.33
- Drug uptake [9]: 3.88
- Drug uptake [10]: 3.2
- Drug uptake [11]: 1.63
- Ratio [12]: 1.2
- Drug uptake [13]: 3.15
- Drug uptake [14]: 2.76
- Drug uptake [15]: 2.89
- Drug uptake [16]: 4.28
- Drug uptake [17]: 3.21
- Drug uptake [18]: 0
- Ratio [19]: 0.7
- Drug uptake [20]: 0.44
- Drug uptake [21]: 1.28
- Ratio [22]: 1.4
- Drug uptake [23]: 2.46
- Ratio [24]: 1.8
- Drug uptake [25]: 4.37
- Drug uptake [26]: 2.37
- Drug uptake [27]: 2.98
- Drug uptake [28]: 2.08
- Drug uptake [29]: 0
- Drug uptake [30]: 1.57
- Drug uptake [31]: 3.74
- Drug uptake [32]: 4.91
- Drug uptake [33]: 2.54
- Drug uptake [34]: 3.07
- Ratio [35]: 2.1
- Ratio [36]: 1.8
- Drug uptake [37]: 4.37
- Drug uptake [38]: 4.29
- Drug uptake [39]: 0
- Drug uptake [40]: 0.79
- Drug uptake [41]: 3.21
- Drug uptake [42]: 0.11
- Ratio [43]: 0.9
- Drug uptake [44]: 3.33
- Ratio [45]: 0.7
- Drug uptake [46]: 3.53
- Drug uptake [47]: 2.43
- Ratio [48]: 1.7
- Drug uptake [49]: 1.51
